Measured values taken from patent US9096591B2, “Tetracyclic compounds” (Medivation Technologies, Inc., priority 2007, dated 2015).

Key:
[1] = biological target: T1, human recombinant histamine H2 receptor (Homo sapiens, UniProt P25021); test: Histamine H2 radioligand binding ([125I]Aminopotentidine); conditions: for inhibition at 1 µM: percent inhibition of specific binding, screened at 1 μM, read-out: Inhibition of ligand binding, Hist. H2
T1 construct: expressed in transfected cells; host or cells: CHO-K1 cells
T1 sequence (P25021 whole entry): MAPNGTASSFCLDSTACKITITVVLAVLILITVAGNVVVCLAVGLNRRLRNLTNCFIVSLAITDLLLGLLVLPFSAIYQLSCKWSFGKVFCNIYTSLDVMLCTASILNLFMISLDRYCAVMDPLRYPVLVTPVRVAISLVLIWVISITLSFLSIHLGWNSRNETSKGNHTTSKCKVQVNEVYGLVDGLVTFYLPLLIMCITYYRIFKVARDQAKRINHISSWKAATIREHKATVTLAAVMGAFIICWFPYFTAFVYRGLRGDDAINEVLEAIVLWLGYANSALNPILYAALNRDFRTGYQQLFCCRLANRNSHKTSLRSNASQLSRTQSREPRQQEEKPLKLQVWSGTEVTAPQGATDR
How it was run: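 Test compounds were assessed for their ability to displace radioligand from the human recombinant histamine H2 receptor. Non-specific binding was determined in the presence of 3 μM Tiotidine, and results were expressed as percent inhibition of specific binding, with 1% DMSO serving as the vehicle.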

[2] = biological target: T2, human recombinant histamine H1 receptor (Homo sapiens, UniProt P35367); test: Histamine H1 radioligand binding ([3H]Pyrilamine); conditions: percent inhibition of specific binding; screened at 1 μM; read-out: Inhibition of ligand binding, Hist. H1
T2 construct: expressed in transfected cells; host or cells: CHO cells
T2 sequence (P35367 whole entry): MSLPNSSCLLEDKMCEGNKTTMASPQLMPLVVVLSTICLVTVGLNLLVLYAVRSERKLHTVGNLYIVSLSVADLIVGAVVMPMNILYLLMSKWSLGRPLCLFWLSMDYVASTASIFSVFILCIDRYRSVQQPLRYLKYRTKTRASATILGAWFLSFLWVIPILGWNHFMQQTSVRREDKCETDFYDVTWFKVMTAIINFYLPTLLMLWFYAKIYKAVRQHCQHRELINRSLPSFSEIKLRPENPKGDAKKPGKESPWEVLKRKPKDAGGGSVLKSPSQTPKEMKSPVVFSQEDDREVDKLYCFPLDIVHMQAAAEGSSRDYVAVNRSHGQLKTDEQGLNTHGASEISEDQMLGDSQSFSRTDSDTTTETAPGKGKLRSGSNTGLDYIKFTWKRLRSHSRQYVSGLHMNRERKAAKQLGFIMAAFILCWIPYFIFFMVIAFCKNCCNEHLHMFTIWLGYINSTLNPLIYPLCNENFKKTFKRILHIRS
How it was run: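 Receptor expressed in CHO cells, assayed in 50 mM Tris-HCl pH 7.4 with 2 mM MgCl2, 100 mM NaCl, 250 mM sucrose. Compounds tested at 1 μM in 1% DMSO; non-specific binding set with 1 μM pyrilamine. Filter-bound radioactivity counted; values are percent inhibition of specific binding.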

[3] = biological target: T3, human recombinant adrenergic α2B receptor (Homo sapiens, UniProt P18089); test: Adrenergic α2B radioligand binding ([3H]Rauwolscine); set-up: Inhibition of ligand binding, Adren. alpha2B: concentration or dose not given beside the values; conditions: percent inhibition of specific binding
T3 construct: expressed in transfected cells; host or cells: CHO-K1 cells
T3 sequence (P18089 1-450): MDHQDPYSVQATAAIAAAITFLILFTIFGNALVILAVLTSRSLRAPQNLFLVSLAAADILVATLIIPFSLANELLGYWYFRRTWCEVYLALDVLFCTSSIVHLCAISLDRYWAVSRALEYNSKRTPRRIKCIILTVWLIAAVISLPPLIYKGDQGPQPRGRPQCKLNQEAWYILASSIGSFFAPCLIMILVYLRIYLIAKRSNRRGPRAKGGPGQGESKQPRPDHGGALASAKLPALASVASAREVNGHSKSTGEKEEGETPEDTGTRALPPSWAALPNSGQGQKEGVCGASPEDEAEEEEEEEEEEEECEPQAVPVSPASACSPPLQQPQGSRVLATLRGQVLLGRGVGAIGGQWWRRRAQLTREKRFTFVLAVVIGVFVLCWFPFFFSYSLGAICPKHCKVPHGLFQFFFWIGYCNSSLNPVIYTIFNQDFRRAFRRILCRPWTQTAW
How it was run: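 Membranes from CHO-K1 cells expressing the receptor, in 50 mM Tris-HCl pH 7.4 with 12.5 mM MgCl2, 1 mM EDTA, 0.2% BSA, incubated with compounds and 2.5 nM [3H]Rauwolscine for 60 minutes at 25 °C.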

[4] = biological target: T4, human recombinant adrenergic α1D receptor (Homo sapiens, UniProt P25100); test: Adrenergic α1D radioligand binding ([3H]Prozosin); set-up: Inhibition of ligand binding, Adren. alpha1D: concentration or dose not given beside the values; conditions: percent inhibition of specific binding
T4 construct: expressed in transfected cells; host or cells: HEK-293 cells
T4 sequence (P25100 1-572): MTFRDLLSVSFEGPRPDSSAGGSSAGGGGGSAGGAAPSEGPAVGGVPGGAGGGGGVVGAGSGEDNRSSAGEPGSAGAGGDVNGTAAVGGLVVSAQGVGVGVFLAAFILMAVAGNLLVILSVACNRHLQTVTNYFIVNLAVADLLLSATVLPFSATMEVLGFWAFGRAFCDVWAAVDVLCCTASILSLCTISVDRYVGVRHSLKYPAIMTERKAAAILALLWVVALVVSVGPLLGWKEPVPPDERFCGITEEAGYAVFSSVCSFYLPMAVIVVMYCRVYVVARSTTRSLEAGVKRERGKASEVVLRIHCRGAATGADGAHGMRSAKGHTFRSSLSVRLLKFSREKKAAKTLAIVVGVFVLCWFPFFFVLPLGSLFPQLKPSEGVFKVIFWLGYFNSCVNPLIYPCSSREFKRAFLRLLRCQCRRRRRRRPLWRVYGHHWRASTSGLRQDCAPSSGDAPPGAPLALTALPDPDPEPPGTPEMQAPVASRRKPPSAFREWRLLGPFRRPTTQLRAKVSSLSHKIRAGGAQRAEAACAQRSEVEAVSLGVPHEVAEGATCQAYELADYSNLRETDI
Method: Compounds of invention were incubated with 0.6 nM [^3H]Prozosin for 60 minutes at 25° C. Non-specific binding was estimated in the presence of 10 μM phentolamine. Receptor proteins were filtered and washed, the filters were then counted to determine [^3H]Prozosin specifically bound. […] Biochemical assay results are presented as the percent inhibition of specific binding in Table 6.

Row | Structure (SMILES) | inhibition at 1 µM [1] [%] | inhibition at 1 µM [2] [%] | Inhibition of ligand binding, Adren. alpha2B [3] [%] | Inhibition of ligand binding, Adren. alpha1D [4] [%] | inhibition at […] ([1]; […] compound, 0.1 nM [125I]Aminopotentidine, read-out: Histamine Binding H2, percent inhibition of specific binding) [%]
1 | CN1CCc2c(c3cc(Cl)ccc3n2CCc2cccnc2)C1 [Compound 55] | 62 | 101 | 90 | 84 | 
2 | CN1CCc2c(c3cc(F)ccc3n2CCc2ccc(Cl)cc2)C1 [Compound 249] | 88 | 100 | 109 | 65 | 
3 | Cc1ccc2c(c1)c1c(n2CCc2cncc(C(F)(F)F)c2)CCN(C)C1 [Compound 425, 5-(2-(5-(trifluoromethyl)pyridin-3-yl)ethyl)-2,3,4,5-tetrahydro-2,8-dimethyl-1H-pyrido[4,3-b]indole] | 85 | 100 | 99 | 65 | 
4 | CCc1ccc2c(c1)c1c(n2CCc2ccc(C(F)(F)F)nc2)CCN(C)C1 [Compound 358, 8-Ethyl-2-methyl-5-[2-(6-trifluoromethyl-pyridin-3-yl)-ethyl]-2,3,4,5-tetrahydro-1H-pyrido[4,3-b]indole] | 47 | 94 | 109 | 95 | 
5 | Cc1ccc(CCn2c3c(c4cc(C(C)C)ccc42)CN(C)CC3)cn1 [Compound 392, 8-Isopropyl-2-methyl-5-[2-(6-methyl-pyridin-3-yl)-ethyl]-2,3,4,5-tetrahydro-1H-pyrido[4,3-b]indole] | 58 | 98 | 109 | 88 | 
6 | CN1CCc2c(c3cc(Cl)c(F)cc3n2CCc2ccc(C(F)(F)F)nc2)C1 [Compound 343] | 29 | 98 | 117 | 61 | 
7 | CN1CCc2c(c3cc(Cl)ccc3n2CCc2cncc(C(F)(F)F)c2)C1 [Compound 426, 8-chloro-5-(2-(5-(trifluoromethyl)pyridin-3-yl)ethyl)-2,3,4,5-tetrahydro-2-methyl-1H-pyrido[4,3-b]indole] | 66 | 99 | 98 | 69 | 
8 | CCc1ccc(CCn2c3c(c4cc(C)ccc42)CN(C)CC3)cn1 [Compound 359, 5-[2-(6-Ethyl-pyridin-3-yl)-ethyl]-2,8-dimethyl-2,3,4,5-tetrahydro-1H-pyrido[4,3-b]indole] | 94 | 99 | 90 | 95 | 
9 | Cc1ccc(CCn2c3c(c4cc(Cl)ccc42)CN(c2cccc(C(F)(F)F)c2)CC3)cn1 [Compound 403, 8-Chloro-5-[2-(6-methyl-pyridin-3-yl)-ethyl]-2-(3-trifluoromethyl-phenyl)-2,3,4,5-tetrahydro-1H-pyrido[4,3-b]indole] | 10 | 54 | 46 | 19 | 
10 | Cc1ccc2c(c1)c1c(n2CC(=O)N2CCC(C)CC2)CCN(C)C1 [Compound 251] | 21 | 55 | 8 | 14 | 
11 | Cc1ccc(CCn2c3c(c4cc(CO)ccc42)CN(C)CC3)cn1 [Compound 263] | 15 | 95 | 105 | 39 | 
12 | Cc1ccc2c(c1)c1c(n2CC(=O)N2Cc3ccccc3C2)CCN(C)C1 [Compound 397, 2-(1,2,3,4-tetrahydro-2,8-dimethylpyrido[4,3-b]indol-5-yl)-1-(isoindolin-2-yl)ethanone] | 32 | 77 | 40 | 19 | 
13 | CN1CCc2c(c3cc(Cl)ccc3n2CCN2CCCCC2)C1 [Compound 189] | 87 | 94 | 72 | 28 | 
14 | Cc1ccc2c(c1)c1c(n2CCc2cncnc2)CCN(C)C1 [Compound 387, 2,8-Dimethyl-5-(2-pyrimidin-5-yl-ethyl)-2,3,4,5-tetrahydro-1H-pyrido[4,3-b]indole] | 11 | 97 | 95 | 47 | 
15 | Cc1ccc(CCn2c3c(c4cc(C(=O)O)ccc42)CN(C)CC3)cn1 [Compound 256, 2-Methyl-5-(2-(6-methylpyridin-3-yl)ethyl)-2,3,4,5-tetrahydro-1H-pyrido[4,3-b]indole-8-carboxylic acid] | -6 | -1 | 4 | −10 | -16
16 | CN1CCN(CCn2c3c(c4cc(Cl)ccc42)CN(C)CC3)CC1 [Compound 417, 8-chloro-2,3,4,5-tetrahydro-2-methyl-5-(2-(4-methylpiperazin-1-yl)ethyl)-1H-pyrido[4,3-b]indole] | 19 | 10 | −1 | 1 | 
17 | CCc1ccc2c(c1)c1c(n2CCc2cnc(C)nc2)CCN(C)C1 [Compound 362, 8-Ethyl-2-methyl-5-[2-(2-methyl-pyrimidin-5-yl)-ethyl]-2,3,4,5-tetrahydro-1H-pyrido[4,3-b]indole] | 19 | 98 | 82 | 76 | 
18 | OC1CCC(N2CCc3c(c4cc(Cl)ccc4n3CCc3ccc(C(F)(F)F)nc3)C2)C1 (stereo not shown) [Compound 351, 3-(8-chloro-5-(2-(6-(trifluoromethyl)pyridin-3-yl)ethyl)-3,4-dihydro-1H-pyrido[4,3-b]indol-2(5H)-yl)cyclopentanol] | -2 | 74 | 43 | 61 | 
19 | CCc1ccc2c(c1)c1c(n2CCc2ccc(C)nc2)CCN(C)C1 [Compound 357, 8-Ethyl-2-methyl-5-[2-(6-methyl-pyridin-3-yl)-ethyl]-2,3,4,5-tetrahydro-1H-pyrido[4,3-b]indole] | 68 | 101 | 106 | 89 | 
20 | Cc1ccc2c(c1)c1c(n2CCc2cnccn2)CCN(C)C1 [Compound 62] | 15 | 93 | 90 | 51 | 
21 | Cc1ccc(CCn2c3c(c4cc(Cl)c(F)cc42)CN(C)CC3)cn1 [Compound 404, 8-Chloro-7-fluoro-2-methyl-5-[2-(6-methyl-pyridin-3-yl)-ethyl]-2,3,4,5-tetrahydro-1H-pyrido[4,3-b]indole] | 88 | 102 | 95 | 81 | 
